Like-named read-outs stand apart in the source and are kept apart here.
Tests used:
[1] = target: T1, human cannabinoid CB1 receptor (Homo sapiens, UniProt P21554); experiment: biochemical; assay type: binding; set-up: expressed in transfected cells; host or cells: Chinese hamster ovary (CHO) cells, membrane preparation; conditions: [3H]CP-55,940 radioligand, CHO cell membranes stably transfected with human CB1
Experimental: After incubation of a freshly prepared cell membrane preparation with the [^3H]-ligand, with or without addition of compounds of the invention, separation of bound and free ligand was performed by filtration over glassfiber filters. Radioactivity on the filter was measured by liquid scintillation counting.

[2] = target: T1, human cannabinoid CB1 receptor; experiment: Cannabinoid CB1 antagonistic activity, forskolin-induced cAMP accumulation in CHO cells; assay type: cell-based; set-up: expressed in transfected cells; host or cells: CHO cells
Experimental: The cannabinoid CB1 antagonistic activity of compounds of the invention was determined by functional studies using CHO cells in which human cannabinoid CB1 receptors were stably expressed. Adenylyl cyclase was stimulated using forskolin and measured by quantifying the amount of accumulated cyclic AMP. Concomitant activation of CB1 receptors by CB1 receptor agonists (e.g. CP-55,940 or (R)-WIN-55,212–2) can attenuate the forskolin-induced accumulation of cAMP in a concentration-dependent manner. This CB1 receptor-mediated response can be antagonized by CB1 receptor antagonists such as the compounds of the invention.

[3] = antagonism of CB1 agonist (e.g. CP-55,940 or (R)-WIN-55,212-2) effect on forskolin-induced cAMP accumulation, CHO cells expressing human CB1
[4] = antagonism of CB1 agonist (e.g. CP-55,940 or (R)-WIN-55,212-2) effect on forskolin-induced cAMP accumulation, CHO cells expressing human CB1, read-out: hCB1 pA2 (converted)

T1 sequence (P21554 whole entry): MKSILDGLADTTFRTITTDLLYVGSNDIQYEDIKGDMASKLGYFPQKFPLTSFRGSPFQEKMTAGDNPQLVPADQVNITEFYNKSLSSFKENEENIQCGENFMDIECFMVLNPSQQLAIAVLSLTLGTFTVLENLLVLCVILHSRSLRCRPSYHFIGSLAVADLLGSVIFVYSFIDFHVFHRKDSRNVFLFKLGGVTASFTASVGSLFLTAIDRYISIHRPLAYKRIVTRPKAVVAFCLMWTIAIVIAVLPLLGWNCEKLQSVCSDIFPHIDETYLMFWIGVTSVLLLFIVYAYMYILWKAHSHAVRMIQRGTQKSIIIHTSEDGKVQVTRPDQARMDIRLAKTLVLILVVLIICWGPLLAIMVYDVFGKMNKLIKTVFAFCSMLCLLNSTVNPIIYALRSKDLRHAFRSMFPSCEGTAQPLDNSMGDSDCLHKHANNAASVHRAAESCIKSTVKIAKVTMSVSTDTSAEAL

Row | Structure (SMILES) | melting point | Ki ([1]; read-out: hCB1 pKi (converted)) [nM] | Kb [2] [nM] | Ki ([1]; hCB1 pKi) [nM] | hCB1 pA2 [2, 3] | Kb [2, 4] [nM]
1 | O=C(NN1CCCCC1)c1cn(-c2ccc(Cl)cc2)c(-c2ccc(Cl)cc2C(F)(F)F)n1 [Example 39, 1-(4-Chlorophenyl)-N-(piperidin-1-yl)-2-(2-trifluoromethyl-4-chlorophenyl)-1H-imidazole-4-carboxamide] | 219 °C | 316 | 50.1 |  |  | 
2 | Cc1c(C(=O)NN2CCCCC2)nc(-c2ccc(Cl)cc2Cl)n1-c1ccc(F)cc1 [Example 62, 2-(2,4-Dichlorophenyl)-1-(4-fluorophenyl)-5-methyl-N-(piperidin-1-yl)-1H-imidazole-4-carboxamide] | 223 to 224 °C |  |  | 31.6 | 7.7 | 
3 | O=C(NN1CCCCC1)c1nc(-c2ccc(Cl)cc2Cl)n(-c2ccc(Cl)cc2)c1Br [Example 117, 1-(4-chlorophenyl)-2-(2,4-dichlorophenyl)-5-bromo-N-(piperidin-1-yl)-1H-imidazole-4-carboxamide] | 181.5 to 183 °C |  |  | 10 |  | 2.51
4 | Cc1c(C(=O)NN2CCCC2)nc(-c2ccc(Cl)cc2Cl)n1-c1ccc(Cl)cc1 [Example 93, 1-(4-Chlorophenyl)-2-(2,4-dichlorophenyl)-5-methyl-N-(pyrrolidin-1-yl)-1H-imidazole-4-carboxamide] | 205 to 206 °C |  |  | 20 | 8.2 | 
5 | Cc1c(C(=O)NC2CCCCCC2)nc(-c2ccc(Cl)cc2Cl)n1-c1ccc(Cl)cc1 [Example 108, 1-(4-Chlorophenyl)-N-cycloheptyl-2-(2,4-dichlorophenyl)-5-methyl-1H-imidazole-4-carboxamide] | 154 to 156 °C |  |  | 7.94 | 9.1 | 
6 | COc1ccc(-n2cc(C(=O)NC3CCCCC3)nc2-c2ccc(Cl)cc2Cl)cc1 [Example 36, N-Cyclohexyl-2-(2,4-dichlorophenyl)-1-(4-methoxyphenyl)-1H-imidazole-4-carboxamide] | 175 to 176 °C |  |  | 158 |  | 6.31
7 | Cc1c(C(=O)N[C@H]2CC[C@H](O)CC2)nc(-c2ccc(Cl)cc2Cl)n1-c1ccc(Cl)cc1 [Example 86, 1-(4-Chlorophenyl)-2-(2,4-dichlorophenyl)-N-(trans-4-hydroxycyclohexyl)-5-methyl-1H-imidazole-4-carboxamide] | 160 °C (dec.) |  |  | 126 |  | 15.8
8 | Cc1c(C(=O)NN2CCCCC2)nc(-c2ccc(Cl)cc2Cl)n1-c1ccc(Br)cc1 [Example 17, 1-(4-Bromophenyl)-2-(2,4-dichlorophenyl)-5-methyl-N-(piperidin-1-yl)-1H-imidazole-4-carboxamide] | > 204 °C |  |  | 50.1 |  | 1.58
9 | CSc1c(C(=O)NN2CCCCC2)nc(-c2ccc(Cl)cc2Cl)n1-c1ccc(Cl)cc1 [Example 120, 1-(4-Chlorophenyl)-2-(2,4-dichlorophenyl)-5-methylsulfanyl-N-(piperidin-1-yl)-1H-imidazole-4-carboxamide] | 170 °C (dec.) |  |  | 12.6 |  | 0.631
10 | O=C(NN1CCCCC1)c1cn(-c2ccc(Cl)cc2)c(-c2ccc(Cl)cc2Cl)n1 [Example 1, 1-(4-chlorophenyl)-2-(2,4-dichlorophenyl)-N-(piperidin-1-yl)-1H-imidazole-4-carboxamide] |  |  |  | 12.6 | 8.2 | 
11 | O=C(NC1CCCCC1)c1cn(-c2ccc(Cl)cc2)c(-c2ccc(Cl)cc2Cl)n1 [Example 5, 1-(4-Chlorophenyl)-N-cyclohexyl-2-(2,4-dichlorophenyl)-1H-imidazole-4-carboxamide] |  |  |  | 79.4 |  | 7.94
12 | O=C(NN1CCCCC1)c1nc(-c2ccc(Cl)cc2Cl)n(-c2ccc(Br)cc2)c1Cl [Example 109, 1-(4-bromophenyl)-5-chloro-2-(2,4-dichloro-phenyl)-N-(piperidin-1-yl)-1H-imidazole-4-carboxamide] |  |  |  | 251 |  | 1.58
13 | Cc1c(C(=O)NOC(C)(C)C)nc(-c2ccc(Cl)cc2Cl)n1-c1ccc(Cl)cc1 [Example 13, N-(t-Butoxy)-2-(2,4-dichlorophenyl)-1-(4-chlorophenyl)-5-methyl-1H-imidazole-4-carboxamide] |  |  |  | 79.4 |  | 3.16
14 | Cc1c(C(=O)NN2CCCCC2)nc(-c2ccc(Cl)cc2Cl)n1-c1ccc(C(F)(F)F)cc1 [Example 45, 2-(2,4-dichlorophenyl)-5-methyl-N-(piperidin-1-yl)-1-(4-(trifluoromethyl)phenyl)-1H-imidazole-4-carboxamide] |  |  |  | 15.8 |  | 1.58
15 | CC(C)(C)ONC(=O)c1cn(-c2ccc(Cl)cc2)c(-c2ccc(Cl)cc2Cl)n1 [Example 3, N-(t-Butoxy)-1-(4-chlorophenyl)-2-(2,4-dichlorophenyl)-1H-imidazole-4-carboxamide] |  | 158 | 31.6 |  |  | 
16 | O=C(NN1CCCC1)c1cn(-c2ccc(Cl)cc2)c(-c2ccc(Cl)cc2Cl)n1 [Example 2, 1-(4-Chlorophenyl)-2-(2,4-dichlorophenyl)-N-(pyrrolidin-1-yl)-1H-imidazole-4-carboxamide] |  |  |  | 100 |  | 25.1
17 | CC(C)(C)ONC(=O)c1cn(-c2ccc(Br)cc2)c(-c2ccc(Cl)cc2Cl)n1 [Example 23, N-(t-Butoxy)-1-(4-bromophenyl)-2-(2,4-dichlorophenyl)-1H-imidazole-4-carboxamide] |  | 398 | 1 |  |  | 
18 | CN(Cc1ccccc1)C(=O)c1cn(-c2ccc(Cl)cc2)c(-c2ccc(Cl)cc2Cl)n1 [Example 6, N-(Benzyl)-1-(4-chlorophenyl)-2-(2,4-dichlorophenyl)-N-methyl-1H-imidazole-4-carboxamide] |  |  |  | 63.1 |  | 50.1
19 | O=C(NN1CCCCC1)c1cn(-c2ccc(Br)cc2)c(-c2ccc(Cl)cc2Cl)n1 [Example 22, 1-(4-bromophenyl)-2-(2,4-dichlorophenyl)-N-(piperidin-1-yl)-1H-imidazole-4-carboxamide] |  | 398 | 10 |  |  | 
20 | Cc1c(C(=O)NN2CCCCC2)nc(-c2ccc(Cl)cc2)n1-c1ccc(Cl)cc1Cl [Example 10, 2-(4-chlorophenyl)-1-(2,4-dichlorophenyl)-5-methyl-N-(piperidin-1-yl)-1H-imidazole-4-carboxamide] |  |  |  | 316 |  | 7.94
21 | CCCCCNC(=O)c1nc(-c2ccc(Cl)cc2Cl)n(-c2ccc(Br)cc2)c1CC [Example 21, 1-(4-Bromophenyl)-2-(2,4-dichlorophenyl)-5-ethyl-N-(n-pentyl)-1H-imidazole-4-carboxamide] |  |  |  | 31.6 |  | < 1
22 | CCc1c(C(=O)NOC(C)(C)C)nc(-c2ccc(Cl)cc2Cl)n1-c1ccc(Cl)cc1 [Example 14, N-(t-Butoxy)-1-(4-chlorophenyl)-2-(2,4-dichlorophenyl)-5-ethyl-1H-imidazole-4-carboxamide] |  |  |  | 100 |  | 0.126
23 | O=C(NN1CC2CCCC2C1)c1cn(-c2ccc(Cl)cc2)c(-c2ccc(Cl)cc2Cl)n1 (stereo not drawn) [Example 26, 1-(4-Chlorophenyl)-2-(2,4-dichlorophenyl)-N-(hexahydrocyclopenta[c]pyrrol-2(1H)-yl)-1H-imidazole-4-carboxamide] |  |  |  | 501 |  | 10
24 | N#Cc1c(C(=O)NN2CCCCC2)nc(-c2ccc(Cl)cc2Cl)n1-c1ccc(Cl)cc1 [Example 110, 1-(4-chlorophenyl)-5-cyano-2-(2,4-dichlorophenyl)-N-(piperidin-1-yl)-1H-imidazole-4-carboxamide] |  |  |  | 31.6 | 8.6 | 

From patent US7109216B2 (priority 2001, dated 2006)
